Measurements as given in ChEMBL document CHEMBL4371069, “Click chemistry for improvement in selectivity of quinazoline-based kinase inhibitors for mutant epidermal growth factor receptors” (Bioorg Med Chem Lett, 2019).

What was measured:
CYP2E1 = CYP2E1 (Homo sapiens, UniProt P05181); experiment: Inhibition of CYP2E1 in human liver microsomes assessed as residual activity at 10 uM using chlorzoxazone as substrate preincubated for 5 mins followed by NADPH addition and measured after 15 mins by LC-MS/MS analysis relative to control; format: ADME; details: probe chlorzoxazone, read-out: Activity
Sequence of CYP2E1 (P05181 whole entry): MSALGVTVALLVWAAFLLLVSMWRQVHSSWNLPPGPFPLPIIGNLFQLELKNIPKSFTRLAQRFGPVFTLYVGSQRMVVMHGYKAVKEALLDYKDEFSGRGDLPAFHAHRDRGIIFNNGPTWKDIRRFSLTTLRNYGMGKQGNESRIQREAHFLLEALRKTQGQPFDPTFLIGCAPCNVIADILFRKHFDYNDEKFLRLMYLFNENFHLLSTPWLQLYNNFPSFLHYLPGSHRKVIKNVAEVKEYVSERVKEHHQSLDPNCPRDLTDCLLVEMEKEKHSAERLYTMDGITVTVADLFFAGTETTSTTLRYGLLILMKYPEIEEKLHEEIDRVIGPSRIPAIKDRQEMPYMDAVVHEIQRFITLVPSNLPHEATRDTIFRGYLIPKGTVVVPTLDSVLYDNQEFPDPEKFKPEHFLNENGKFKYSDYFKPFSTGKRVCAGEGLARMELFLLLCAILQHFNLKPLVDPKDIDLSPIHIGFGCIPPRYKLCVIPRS

CYP2A6 = biological target: T1, CYP2A6 (Homo sapiens, UniProt P11509); experiment: Inhibition of CYP2A6 in human liver microsomes assessed as residual activity at 10 uM using coumarin as substrate preincubated for 5 mins followed by NADPH addition and measured after 15 mins by LC-MS/MS analysis relative to control; format: ADME; details: probe coumarin, read-out: Activity
T1 sequence (P11509 whole entry): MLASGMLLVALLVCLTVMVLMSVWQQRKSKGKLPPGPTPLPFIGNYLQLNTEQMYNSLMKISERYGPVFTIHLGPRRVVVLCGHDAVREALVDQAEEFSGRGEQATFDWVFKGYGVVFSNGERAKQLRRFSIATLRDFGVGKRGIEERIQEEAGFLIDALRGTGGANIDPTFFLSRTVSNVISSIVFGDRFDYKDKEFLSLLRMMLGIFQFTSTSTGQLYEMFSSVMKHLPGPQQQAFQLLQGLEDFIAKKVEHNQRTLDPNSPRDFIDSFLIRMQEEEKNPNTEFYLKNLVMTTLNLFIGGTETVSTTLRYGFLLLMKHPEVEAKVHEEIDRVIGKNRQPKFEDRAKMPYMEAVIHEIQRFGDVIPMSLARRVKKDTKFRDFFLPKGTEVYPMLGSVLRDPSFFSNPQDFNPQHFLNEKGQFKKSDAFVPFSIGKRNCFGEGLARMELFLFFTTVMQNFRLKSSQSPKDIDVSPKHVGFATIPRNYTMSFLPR

hERG (KCNH2) = hERG (KCNH2) (Homo sapiens, UniProt Q12809); experiment: Inhibition of human ERG expressed in HEK cell at 10 uM at -70 mV holding potential by patch clamp method relative to control; details: HEK cells that express hERG
Sequence of hERG (KCNH2) (Q12809 whole entry): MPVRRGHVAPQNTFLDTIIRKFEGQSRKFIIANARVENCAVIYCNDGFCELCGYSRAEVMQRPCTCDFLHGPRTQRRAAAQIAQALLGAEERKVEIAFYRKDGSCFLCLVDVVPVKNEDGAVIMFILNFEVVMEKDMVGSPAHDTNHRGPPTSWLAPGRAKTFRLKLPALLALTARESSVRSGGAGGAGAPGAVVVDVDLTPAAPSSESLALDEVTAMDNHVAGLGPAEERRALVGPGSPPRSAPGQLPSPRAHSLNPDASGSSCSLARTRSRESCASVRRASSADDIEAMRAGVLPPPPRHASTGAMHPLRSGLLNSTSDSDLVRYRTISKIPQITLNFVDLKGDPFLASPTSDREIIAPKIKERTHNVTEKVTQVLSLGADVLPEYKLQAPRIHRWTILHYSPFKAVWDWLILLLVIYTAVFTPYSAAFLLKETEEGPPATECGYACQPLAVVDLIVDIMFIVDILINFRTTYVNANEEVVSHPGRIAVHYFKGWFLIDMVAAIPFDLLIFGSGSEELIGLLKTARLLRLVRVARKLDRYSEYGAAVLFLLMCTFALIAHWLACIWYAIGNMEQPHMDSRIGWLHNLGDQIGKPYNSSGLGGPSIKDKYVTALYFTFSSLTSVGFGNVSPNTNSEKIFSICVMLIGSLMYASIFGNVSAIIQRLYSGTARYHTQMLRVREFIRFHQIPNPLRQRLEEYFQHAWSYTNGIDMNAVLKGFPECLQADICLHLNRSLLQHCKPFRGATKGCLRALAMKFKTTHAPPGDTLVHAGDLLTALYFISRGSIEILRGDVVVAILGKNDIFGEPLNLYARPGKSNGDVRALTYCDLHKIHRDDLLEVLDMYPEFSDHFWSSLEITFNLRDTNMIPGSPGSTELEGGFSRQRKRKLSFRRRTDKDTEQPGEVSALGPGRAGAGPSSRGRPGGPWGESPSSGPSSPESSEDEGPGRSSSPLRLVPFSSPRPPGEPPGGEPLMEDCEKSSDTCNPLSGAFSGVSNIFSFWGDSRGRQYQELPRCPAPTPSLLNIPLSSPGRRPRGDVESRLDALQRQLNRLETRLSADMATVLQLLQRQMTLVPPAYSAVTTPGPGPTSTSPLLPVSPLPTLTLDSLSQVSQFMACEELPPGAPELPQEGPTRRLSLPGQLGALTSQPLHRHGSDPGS

HepG2 = experiment: Cytotoxicity against human HepG2 cells after 24 hrs by LDH release assay; format: cell-based; details: HepG2, 24 h
[1] = Safety index, ratio of compound IC50 to afatinib IC50 for antiproliferative activity against HER2-dependant human SKBR3 cells; format: cell-based; details: SK-BR-3 cells (HER2-dependent), read-out: Ratio IC50
NCI-H1975 = experiment: Antiproliferative activity against human NCI-H1975 cells harboring EGFR T790M/L858R double mutant after 72 hrs by EZ-Cytox assay; format: functional, cell-based; details: NCI-H1975, 72 h
[2] = test system: Epidermal growth factor receptor (Homo sapiens), P00533 [L858R,T790M]; experiment: Potency index, ratio of afatinib IC50 to compound IC50 for inhibition of human N-terminal GST-tagged EGFR T790M/L858R double mutant (696 to end residues) expressed in baculovirus infected sf21 cells
[3] = Selectivity index, ratio of IC50 for human N-terminal GST-tagged EGFR kinase domain (696 to end residues) expressed in baculovirus infected sf21 cells to IC50 for human N-terminal GST-tagged EGFR T790M/L858R double mutant (696 to end residues) expressed in baculovirus infected sf21 cells
[4] = Selectivity index, ratio of IC50 for human C-terminal His6-tagged ERBB2 (676 to end residues) expressed in baculovirus infected sf21 cells to IC50 for human N-terminal GST-tagged EGFR T790M/L858R double mutant (696 to end residues) expressed in baculovirus infected sf21 cells
PC-9 = experiment: Potency index, ratio of gefitinib IC50 to compound IC50 for antiproliferative activity against human PC9 cells harboring EGFR exon-19 del mutant; format: functional

Row | SMILES | activity at 0.25 h, 10 µM (CYP2E1) [%] | activity at 0.25 h, 10 µM (CYP2A6) [%] | inhibition at 10 µM (hERG (KCNH2)) [%] | IC50 (HepG2) [µM] | selectivity ratio [1] | IC50 (NCI-H1975) [µM] | Ratio IC50 [2] | Ratio IC50 [3] | Ratio IC50 [4] | Ratio IC50 (PC-9)
1 | C=CC(=O)Nc1cc2c(Nc3ccc(F)c(Cl)c3)ncnc2cc1OCc1cn(Cc2ccc(F)cc2)nn1 | 60.9 | 82.7 | 46.2 | 27 | > 95 | 0.453 |  |  |  | 
2 | C=CC(=O)Nc1cc2c(Nc3ccc(F)c(Cl)c3)ncnc2cc1OCc1cn(Cc2ccc(Cl)cc2)nn1 | 63.4 | 89 | 33.6 | 60 | > 95 | 0.304 |  |  |  | 
3 | C=CC(=O)Nc1cc2c(Nc3ccc(F)c(Cl)c3)ncnc2cc1OCc1cn(Cc2cccc(F)c2)nn1 | 59 | 91 | 20.7 | 29 | > 95 | 0.505 | 3.5 | 17 | 52 | 6.7
